From patent US7365095B2, “Chromane and chromene derivatives and uses thereof” (Wyeth, priority 2005, dated 2008) come the findings set out here.

Where a name gives a salt, the structure may show the parent alone. Read-outs that look alike come from different tables or passages of the source. Bounds are passed on as bounds.

For one test, the target named is T1, human 5-HT2C receptor (Homo sapiens, UniProt P28335).
T1 sequence (P28335 33-458): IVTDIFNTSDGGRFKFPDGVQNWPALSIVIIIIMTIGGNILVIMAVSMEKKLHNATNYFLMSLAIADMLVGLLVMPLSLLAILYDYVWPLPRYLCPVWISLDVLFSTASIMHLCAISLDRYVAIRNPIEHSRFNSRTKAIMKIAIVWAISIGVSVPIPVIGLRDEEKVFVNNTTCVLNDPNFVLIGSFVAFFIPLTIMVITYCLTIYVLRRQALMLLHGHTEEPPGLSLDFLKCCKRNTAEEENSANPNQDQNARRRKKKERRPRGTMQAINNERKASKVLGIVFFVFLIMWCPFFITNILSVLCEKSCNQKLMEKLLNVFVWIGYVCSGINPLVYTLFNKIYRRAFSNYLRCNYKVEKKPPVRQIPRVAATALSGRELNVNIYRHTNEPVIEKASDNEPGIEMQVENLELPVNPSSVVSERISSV
The test is described as follows: calcium mobilization (FLIPR) in CHO cells stably expressing the human 5-HT2C receptor. The test is classed as cell-based. The settings on record: for Emax: CHO, read-out: 5-HT2C Function EMax (%); for EC50: calcium mobilization, read-out: 5-HT2C Function EC50.

Test [1] addresses T2, human 5-hydroxytryptamine-2C (h5-HT2C) receptor (Homo sapiens, UniProt P28335).
T2 construct: expressed in transfected cells; host or cells: CHO (Chinese Hamster Ovary) cells; membrane preparation
T2 sequence (P28335 33-458): T1 sequence (P28335 33-458)
The experiment in a line: [125I]DOI binding to membranes of CHO cells expressing h5-HT2C receptor.

Setting [2] is: read-out: 5-HT2C Binding Ki avg.

As a reminder, the Emax is the maximal effect, on the per cent scale that the assay sets. Broadly, the EC50 is the concentration giving half of the maximal effect. The Ki is the equilibrium dissociation constant of an inhibitor or competing ligand from its target. As to `CNC[C@@H]1CCc2cccc(-c3cc(Cl)ccc3Cl)c2O1` [Compound 20, {[(2S)-8-(2,5-dichlorophenyl)-3,4-dihydro-2H-chromen-2-yl]methyl}methylamine hydrochloride], at human 5-HT2C receptor, the Emax worked out at 90% and the EC50 is under 50 nM. Moreover, the Ki in test [1] (setting [2]) is at most 10 nM.
For `NC[C@@H]1CCc2cc(F)cc(-c3cc(Cl)ccc3Cl)c2O1` [Compound 55, {[(2S)-8-(2,5-dichlorophenyl)-6-fluoro-3,4-dihydro-2H-chromen-2-yl]methyl}amine hydrochloride] the same measures were 70%, 50 to 200 nM and at most 10 nM.
A word on the Kd: it is the free concentration of one partner at which half of the binding sites on the other are occupied at equilibrium, for simple one-to-one binding. As for `COc1cc(CC(C)N)c(OC)cc1I` (stereo not shown) [[^125I] DOI, reference compound], in test [1] (saturation binding with increasing concentrations of [125I] DOI, read-out: dissociation constant, KD), the Kd is 0.4 nM.
In the case of `NC[C@H]1CCc2cc(F)cc(-c3ccc(Cl)cc3Cl)c2O1` [Compound 47, {[(2R)-8-(2,4-dichlorophenyl)-6-fluoro-3,4-dihydro-2H-chromen-2-yl]methyl}amine hydrochloride], at human 5-HT2C receptor, the Emax stood at 90% and the EC50 lay within 50 to 200 nM. For the same molecule, the Ki in test [1] (setting [2]) is over 50 nM.
For `CNC[C@H]1CCc2cccc(-c3ccccc3C)c2O1` [Compound 8, N-methyl-N-{[(2R)-8-(2-methylphenyl)-3,4-dihydro-2H-chromen-2-yl]methyl}amine hydrochloride] the same measures were 100%, under 50 nM and at most 10 nM.
As for `NC[C@@H]1CCc2cc(F)cc(-c3ccccc3Cl)c2O1` [Compound 51, {[(2S)-8-(2-chlorophenyl)-6-fluoro-3,4-dihydro-2H-chromen-2-yl]methyl}amine hydrochloride], at human 5-HT2C receptor, the Emax amounted to 80% and the EC50 is under 50 nM. For the same molecule, the Ki in test [1] (setting [2]) lay within 10 to 50 nM.
As to `NC[C@H]1CCCc2cccc(-c3c(Cl)cccc3Cl)c2O1` [Compound 67, {[(2R)-9-(2,6-dichlorophenyl)-2,3,4,5-tetrahydro-1-benzoxepin-2-yl]methyl}amine hydrochloride], at human 5-HT2C receptor, the Emax worked out at 80% and the EC50 fell in the range of 50 to 200 nM. Further, the Ki in test [1] (setting [2]) lay in the range of 10 to 50 nM.
For `CNC[C@H]1CCc2cccc(-c3c(Cl)cccc3Cl)c2O1` [Compound 35, {[(2R)-8-(2,6-dichlorophenyl)-3,4-dihydro-2H-chromen-2-yl]methyl}methylamine hydrochloride] the same measures were 90%, under 50 nM and at most 10 nM.
Take `CNC[C@H]1C=Cc2cccc(-c3c(Cl)cccc3Cl)c2O1` [Compound 59, {[(2R)-8-(2,6-dichlorophenyl)-2H-chromen-2-yl]methyl}methylamine hydrochloride]: at human 5-HT2C receptor, the Emax amounted to 90% and the EC50 is under 50 nM. Moreover, in test [1] (setting [2]), the Ki is at most 10 nM.
On to `NC[C@H]1CCc2cc(F)cc(-c3cccnc3)c2O1` [Compound 50, {[(2R)-6-fluoro-8-pyridin-3-yl-3,4-dihydro-2H-chromen-2-yl]methyl}amine hydrochloride], for which, at human 5-HT2C receptor, the Emax is 90% and the EC50 was under 50 nM. Also, the Ki in test [1] (setting [2]) lay within 10 to 50 nM.
In the case of `NC[C@H]1CCc2cc(F)cc(-c3ccccc3)c2O1` [Compound 48, {[(2R)-6-fluoro-8-phenyl-3,4-dihydro-2H-chromen-2-yl]methyl}amine hydrochloride], on human 5-HT2C receptor, the Emax was 90% and the EC50 is 50 to 200 nM. For the same molecule, in test [1] (setting [2]), the inhibition constant Ki was at most 10 nM.
Taken in the same sequence, the figures for `NC[C@@H]1CCc2cc(F)cc(-c3ccc(Cl)cc3Cl)c2O1` [Compound 56, {[(2S)-8-(2,4-dichlorophenyl)-6-fluoro-3,4-dihydro-2H-chromen-2-yl]methyl}amine hydrochloride] were 80%, 50 to 200 nM and 10 to 50 nM.
For `NC[C@H]1C=Cc2cc(F)cc(-c3cc(Cl)ccc3Cl)c2O1` [Compound 63, {[(2R)-8-(2,5-dichlorophenyl)-6-fluoro-2H-chromen-2-yl]methyl}amine hydrochloride] the same measures were 90%, under 50 nM and at most 10 nM.
Taken in the same sequence, the figures for `CNC[C@H]1CCc2cccc(-c3ccc(Cl)cc3Cl)c2O1` [Compound 4, {[(2R)-8-(2,4-dichlorophenyl)-3,4-dihydro-2H-chromen-2-yl]methyl}methylamine hydrochloride] were 80%, under 50 nM and over 50 nM.
With `NC[C@@H]1CCc2cccc(-c3cccnc3)c2O1` [Compound 34, {[(2S)-8-pyridin-3-yl-3,4-dihydro-2H-chromen-2-yl]methyl}amine hydrochloride], the Ki in test [1] (setting [2]) is over 50 nM.
Take `COc1ccccc1-c1cccc2c1O[C@@H](CN)CC2` [Compound 15, {[(2R)-8-(2-methoxyphenyl)-3,4-dihydro-2H-chromen-2-yl]methyl}amine hydrochloride]: at human 5-HT2C receptor, the Emax is 90% and the EC50 was under 50 nM. Further, the Ki in test [1] (setting [2]) was at most 10 nM.
Taken in the same sequence, the figures for `CNC[C@@H]1CCc2cccc(-c3ccc(OC)cc3OC)c2O1` [Compound 24, {[(2S)-8-(2,4-dimethoxyphenyl)-3,4-dihydro-2H-chromen-2-yl]methyl}methylamine hydrochloride] were 100%, 50 to 200 nM and 10 to 50 nM.
For the molecule `NC[C@H]1C=Cc2cccc(-c3c(Cl)cccc3Cl)c2O1` [Compound 60, {[(2R)-8-(2,6-dichlorophenyl)-2H-chromen-2-yl]methyl}amine hydrochloride], on human 5-HT2C receptor, the Emax worked out at 100% and the EC50 is under 50 nM. Moreover, the Ki in test [1] (setting [2]) is at most 10 nM.
Turning to `NC[C@@H]1CCc2cccc(-c3ccc(Cl)cc3Cl)c2O1` [Compound 29, {[(2S)-8-(2,4-dichlorophenyl)-3,4-dihydro-2H-chromen-2-yl]methyl}amine hydrochloride], on human 5-HT2C receptor, the Emax worked out at 80% and the EC50 was over 200 nM. For the same molecule, the Ki in test [1] (setting [2]) lay in the range of 10 to 50 nM.
`Cc1ccccc1-c1c(Cl)ccc2c1O[C@@H](CN)CC2` [Compound 69, ((2R)-7-Chloro-8-o-tolylchroman-2-yl)methanamine hydrochloride]: the Ki in test [1] (setting [2]) was at most 10 nM.
The same measure, in the same setting: in the case of `Cc1cc(Cl)ccc1-c1c(F)ccc2c1O[C@@H](CN)CC2` [Compound 72, ((2R)-8-(4-Chloro-2-methylphenyl)-7-fluorochroman-2-yl)methanamine hydrochloride] it was at most 10 nM.
Still for that read-out and setting: under `COc1ccccc1-c1cccc2c1O[C@H](CN)CC2` [Compound 31, {[(2S)-8-(2-methoxyphenyl)-3,4-dihydro-2H-chromen-2-yl]methyl}amine hydrochloride] stands over 50 nM.
Turning to `NC[C@H]1CCc2cccc(-c3ccccc3Cl)c2O1` [Compound 11, {[(2R)-8-(2-chlorophenyl)-3,4-dihydro-2H-chromen-2-yl]methyl}amine hydrochloride], on human 5-HT2C receptor, the Emax amounted to 100% and the EC50 was under 50 nM. Further, the Ki in test [1] (setting [2]) was at most 10 nM.
As for `CNC[C@H]1CCc2cc(F)cc(-c3ccccc3Cl)c2O1` [Compound 39, {[(2R)-8-(2-chlorophenyl)-6-fluoro-3,4-dihydro-2H-chromen-2-yl]methyl}methylamine hydrochloride], on human 5-HT2C receptor, the Emax amounted to 100% and the EC50 is under 50 nM. Besides, the Ki in test [1] (setting [2]) is at most 10 nM.
As for `NC[C@H]1CCc2ccc(F)c(-c3ccccc3Cl)c2O1` [Compound 71, ((2R)-8-(2-chlorophenyl)-7-fluorochroman-2-yl)methanamine hydrochloride], the Ki in test [1] (setting [2]) is at most 10 nM.
`CNC[C@@H]1CCc2cccc(-c3ccccc3OC)c2O1` [Compound 23, {[(2S)-8-(2-methoxyphenyl)-3,4-dihydro-2H-chromen-2-yl]methyl}methylamine hydrochloride]: the inhibitory constant (Ki) in test [1] (setting [2]) was over 50 nM.
Still for that read-out and setting: under `NC[C@@H]1CCc2cc(F)cc(-c3cccnc3)c2O1` [Compound 54, {[(2S)-6-fluoro-8-pyridin-3-yl-3,4-dihydro-2H-chromen-2-yl]methyl}amine hydrochloride] stands over 50 nM; under `CNC[C@@H]1CCc2cccc(-c3ccccc3)c2O1` [Compound 22, N-methyl-1-[(2S)-8-phenyl-3,4-dihydro-2H-chromen-2-yl]methanamine hydrochloride], over 50 nM.
As to `NC[C@@H]1CCc2cccc(-c3ccccc3)c2O1` [Compound 30, {[(2S)-8-phenyl-3,4-dihydro-2H-chromen-2-yl]methyl}amine hydrochloride], the inhibition constant Ki in test [1] (setting [2]) is over 50 nM.
Turning to `CSc1ccc2c(c1)C(N1CCN(C)CC1)Cc1ccccc1S2` (stereo not shown) [Methiothepin, reference compound], the Ki in test [1] (reference compounds, 95% confidence interval in brackets, [125I]DOI displacement, read-out: Ki) was 4.6 nM.
As to `CNC[C@@H]1CCc2cccc(-c3cccnc3)c2O1` [Compound 26, N-methyl-1-[(2S)-8-pyridin-3-yl-3,4-dihydro-2H-chromen-2-yl]methanamine hydrochloride], the Ki in test [1] (setting [2]) is over 50 nM.
Still for that read-out and setting: in the case of `NC[C@@H]1CCc2cc(F)cc(-c3ccccc3)c2O1` [Compound 52, {[(2S)-6-fluoro-8-phenyl-3,4-dihydro-2H-chromen-2-yl]methyl}amine hydrochloride] it was over 50 nM.
